Assays:
[1] = Dynamic light scattering of lipid nanoparticles (size, PDI); format: physicochemical
Experimental: (§1) Lipid nanoparticle formulations 3 were prepared by Process A at a molar ratio of 40:1.5:30:28.5 (Cationic Lipid: DMG-PEG2000: Cholesterol: Helper Lipid) with the cationic lipids and helper lipids disclosed in the tables below. The Polydispersity Index (Pdl) of lipid nanoparticles can be determined by diluting the formulation in 10% trehalose at about 0.1 mg/ml mRNA concentration and then measuring the size on Malvern zetasizer. The lipid nanoparticle size can be obtained with Malvern Zetasizer Nano-ZS.
Dynamic light scattering (DLS) measurements were performed using a Malvern Instruments Zetasizer with a backscattering detector angle of 173° and a 4-mW, 633-nm He—Ne laser (Worcestershire, UK). The samples were analyzed by diluting in 10% Trehalose and measuring the size and Poly dispersity Index (PDI) in an optical grade polystyrene cuvette.

[2] = mRNA encapsulation efficiency of lipid nanoparticles; format: physicochemical; settings: for Encapsulation efficiency (EE): LNP with cationic lipid CL-A
Text: In embodiments, the lipid nanoparticle encapsulates a nucleic acid, optionally an mRNA encoding a peptide or protein. In embodiments, the lipid nanoparticle encapsulates an mRNA encoding a peptide or protein, optionally for use in a vaccine. In embodiments, the peptide is an antigen. As used herein, the phrase “encapsulation percentage” refers to the fraction of therapeutic agent (e.g. mRNA) that is effectively encapsulated within a liposomal-based vehicle (e.g. a lipid nanoparticle) relative to the initial fraction of therapeutic agent present in the lipid phase. In embodiments, the lipid nanoparticles have an encapsulation percentage for mRNA of at least 50%. In embodiments, the lipid nanoparticles have an encapsulation percentage for mRNA of at least 55%. In embodiments, the lipid nanoparticles have an encapsulation percentage for mRNA of at least 60%. In embodiments, the lipid nanoparticles have an encapsulation percentage for mRNA of at least 65%. In embodiments, the lipid nanoparticles have an encapsulation percentage for mRNA of at least 70%. In embodiments, the lipid nanoparticles have an encapsulation percentage for mRNA of at least 75%. In embodiments, the lipid nanoparticles have an encapsulation percentage for mRNA of at least 80%. In embodiments, the lipid nanoparticles have an encapsulation percentage for mRNA of at least 85%. In embodiments, the lipid nanoparticles have an encapsulation percentage for mRNA of at least 90%. In embodiments, the lipid nanoparticles have an encapsulation percentage for mRNA of at least 95%. In embodiments, the encapsulation percentage is calculated by performing the Ribogreen assay (Invitrogen) with and without the presence of 0.1% Triton-X 100.
The lipid nanoparticles in the examples of the present invention were formulated using Process A of WO 2018/089801 (see, e.g., Example 1 and FIG. 1 of WO 2018/089801). Process A (“A”) relates to a conventional method of encapsulating mRNA by mixing mRNA with a mixture of lipids, without first pre-forming the lipids into lipid nanoparticles. In an exemplary process, an ethanolic solution of a mixture of lipids (cationic lipid, phosphatidylethanolamine, cholesterol, and polyethylene glycol-lipid) at a fixed lipid to mRNA ratio were combined with an aqueous buffered solution of target mRNA at an acidic pH under controlled conditions to yield a suspension of uniform LNPs. After ultrafiltration and diafiltration into a suitable diluent system, the resulting nanoparticle suspensions were diluted to final concentration, filtered, and stored frozen at −80° C. until use.
as §1

[3] = system: hEPO; assay: IM EPO expression of LNPs containing new helper lipids (hEPO in serum by ELISA); format: in vivo, female BALB/cJ mice; settings: for 6-h EPO / 24-h EPO: single IM injection; for 24-h EPO: serum 24 hours post injection; for Normalized Mean EPO expression: helper lipid CL-C formulations, IM, DOPE = 1
Experimental: Lipid nanoparticles were formulated containing the four lipid components shown below at a ratio of 40:30:28.5:1.5, complexed with a hEPO messenger RNA. • Cationic lipid, 40 mol % • Phospholipid (PEA) helper lipid, 30 mol % • Cholesterol, 28.5 mol % • DMG-PEG-2K (1,2-dimyristoyl-rac-glycero-3-methoxypolyethyleneglycol), 1.5 mol % The cationic lipid component of each formulation was selected from the compounds in the table below: […]
EPO expression studies were conducted with female BALB/cJ mice 6-8 weeks of age. Mice were dosed with […] EPO mRNA in 30 μL of LNPs by a single intramuscular (IM) injection into the gastrocnemius leg muscle. Blood samples were taken 6 and 24 hours post injection and hEPO levels were measured in the blood serum of the mice using an ELISA assay according to the manufacture's protocol. WO2022/099003 A1 also describes an in vivo assay for intramuscular administration (e.g. on page 46, paragraph [00206]).

[4] = system: hEPO; assay: IV EPO expression of LNPs (tail vein injection); format: in vivo, female BALB/cJ mice; settings: cationic lipid CL-0137, helper lipid 30 mol %; 0.017 μg EPO mRNA tail vein; 6 hours; DOPE = 1
Experimental: Lipid nanoparticles were formulated containing the four lipid components shown below at a ratio of 40:30:28.5:1.5, complexed with a hEPO messenger RNA. • Cationic lipid CL-0137, 40 mol % • Helper lipid, 30 mol % • Cholesterol, 28.5 mol % • DMG-PEG-2K (1,2-dimyristoyl-rac-glycero-3-methoxypolyethyleneglycol), 1.5 mol %
EPO expression studies were conducted with female BALB/cJ mice 6-8 weeks of age. Mice were dosed with 0.017 μg EPO mRNA LNPs in a volume of 5 ul by a single tail vein injection. Blood samples were taken 6 hours post injection and hEPO levels were measured in the blood serum of the mice using an ELISA assay according to the manufacture's protocol.

[5] = LNP with cationic lipid CL-A, hEPO mRNA, 40:30:28.5:1.5
[6] = CL-A LNP, 0.1 μg EPO mRNA in 30 μL, serum 6 hours post injection
[7] = CL-B LNP, serum 6 hours post injection

Polydispersity Index (PDI) ([1]; LNP with cationic lipid CL-A)	Size [1, 5] [nm]	PDI ([1]; LNP with cationic lipid CL-B)	Size ([1]; LNP with cationic lipid CL-B) [nm]	PDI ([1]; LNP with cationic lipid CL-C)	Size ([1]; LNP with cationic lipid CL-C) [nm]	Encapsulation efficiency (EE) [2] [%]	EE ([2]; LNP with cationic lipid CL-B) [%]	EE ([2]; LNP with cationic lipid CL-C) [%]	SMILES	6-h EPO [3, 6] [ng/mL]	6-h EPO [3, 7] [ng/mL]	6-h EPO ([3]; CL-C LNP, (6-h)) [ng/mL]	Normalized Mean IV EPO expression [4]	Normalized Mean EPO expression [3]	further results
0.050	160	0.132	109.6	0.072	110.1	93	93	90	CCCCCCCCC(CCCCCCCC)OC(=O)CCCCCCC(=O)OCC(COP(=O)(O)OCCN(C)C)OC(=O)CCCCCCC(=O)OC(CCCCCCCC)CCCCCCCC (centres unmarked) [Compound 12, O′^1,O^1-(3-(((2-(Dimethylamino)ethoxy)(hydroxy)phosphoryl)-oxy)propane-1,2-diyl) 8-di(heptadecan-9-yl) di(octanedioate)]	28.9209	39.6	38.4	2.23	–	PDI ([1]; LNP with cationic lipid CL-D): 0.094; Size ([1]; LNP with cationic lipid CL-D): 113.4 nm; PDI ([1]; LNP with cationic lipid CL-E): 0.072; Size ([1]; LNP with cationic lipid CL-E): 112.6 nm; EE ([2]; LNP with cationic lipid CL-D): 92%; EE ([2]; LNP with cationic lipid CL-E): 91%; 24-h EPO ([3]; CL-A LNP): 19.526 ng/mL; 24-h EPO ([3]; CL-B LNP): 24 ng/mL; 6-h EPO ([3]; CL-C LNP): 26.2 ng/mL
0.106	121	0.108	98.9	0.047	97.9	91	90	88	CCCCCCCCC(CCCCC)COC(=O)CCC(=O)OCC(COP(=O)(O)OCCN)OC(=O)CCC(=O)OCC(CCCCC)CCCCCCCC (centres unmarked) [Compound 5, O,O′-(3-(((2-Aminoethoxy)(hydroxy)phosphoryl)oxy)propane-1,2-diyl) bis(2-pentyldecyl) disuccinate]	–	9.8	13.3	1.25	–	24-h EPO ([3]; CL-B LNP): 6.4 ng/mL; 6-h EPO ([3]; CL-C LNP): 10.1 ng/mL
0.071	137	0.022	122.7	0.054	110.9	93	81	60	CCCCCCCCC(CCCCCCCC)C(=O)OCCCCCC(=O)OCC(COP(=O)(O)OCCN(C)C)OC(=O)CCCCCOC(=O)C(CCCCCCCC)CCCCCCCC (centres unmarked) [Compound 17, ((3-(((2-(Dimethylamino)ethoxy)(hydroxy)phosphoryl)oxy)propane-1,2-diyl)bis(oxy))bis(6-oxohexane-6,1-diyl) bis(2-octyldecanoate)]	16.3	14.5	31.7	4.53	–	–
–	–	–	–	–	–	–	–	–	CCCCCCCCC(CCCCCCCC)OC(=O)CCCCCCC(=O)OC[C@@H](COP(=O)(O)OCCCCCN(C)C)OC(=O)CCCCCCC(=O)OC(CCCCCCCC)CCCCCCCC [Compound 65, O′^1,O^1-((2S)-3-((((5-(Dimethylamino)pentyl)oxy)(hydroxy)phosphoryl)-oxy)propane-1,2-diyl) 8-di(heptadecan-9-yl) di(octanedioate)]	–	–	–	2.14	0.825	–
0.068	148	0.067	137.0	0.141	101.4	96	92	91	CCCCCCCCC(CCCCCCCC)OC(=O)CCCCCCC(=O)OC[C@H](COP(=O)(O)OCCN(C)C)OC(=O)CCCCCCC(=O)OC(CCCCCCCC)CCCCCCCC [Compound 14]	0	35.4	34.6	0.95	–	–
–	–	–	–	–	–	–	–	–	CCCCCCCCC(CCCCCCCC)OC(=O)CCCCCCC(=O)OC[C@@H](COP(=O)(O)OCC[N+](C)(C)CCCO)OC(=O)CCCCCCC(=O)OC(CCCCCCCC)CCCCCCCC [Compound 38, (S)-2,3-Bis((8-(heptadecan-9-yloxy)-8-oxooctanoyl)oxy)propyl (2-((3-hydroxypropyl)dimethylammonio)ethyl) phosphate]	–	–	–	0.8	–	–
–	–	–	–	–	–	–	–	–	CCCCCCCCC(CCCCCCCC)OC(=O)CCCCCCC(=O)OC[C@@H](COP(=O)(O)OCCN(C)CCCO)OC(=O)CCCCCCC(=O)OC(CCCCCCCC)CCCCCCCC [Compound 28, 8-Di(heptadecan-9-yl) O′1,O1-((2S)-3-((hydroxy(2-((3-hydroxypropyl)(methyl)amino)ethoxy)phosphoryl)oxy)propane-1,2-diyl) di(octanedioate)]	–	–	–	–	1.77	–
0.031	137	0.124	97.0	0.102	88.5	69	37	69	CC(C)CCCCOC(=O)CCCCCCC(=O)OCC(COP(=O)(O)OCCN)OC(=O)CCCCCCC(=O)OCCCCC(C)C (centres unmarked) [Compound 2, O′^1,O^1-(3-(((2-Aminoethoxy)(hydroxy)phosphoryl)oxy)-propane-1,2-diyl) 8-bis(5-methylhexyl) di(octanedioate)]	–	–	–	–	–	PDI ([1]; LNP with cationic lipid CL-D): 0.064; Size ([1]; LNP with cationic lipid CL-D): 114.3 nm; EE ([2]; LNP with cationic lipid CL-D): 78%
–	–	–	–	–	–	–	–	–	CCCCCCCCC(CCCCCCCC)OC(=O)CCCCCCC(=O)OCC(COP(=O)(O)OCCCN(C)C)OC(=O)CCCCCCC(=O)OC(CCCCCCCC)CCCCCCCC (centres unmarked) [Compound 60]	–	–	–	4.61	1.39	–
0.059	153	0.108	123.9	0.129	97.0	94	98	97	CCCCCCCCC(CCCCCCCC)OC(=O)CCCCCCC(=O)OCC(COP(=O)(O)OCCN(C)CCCO)OC(=O)CCCCCCC(=O)OC(CCCCCCCC)CCCCCCCC (centres unmarked) [Compound 27]	25.6	53	46.9	–	–	–

Reference: patent US20260224688A1, “HELPER LIPIDS FOR NUCLEIC ACID DELIVERY” (SANOFI PASTEUR INC., priority 2023, published 2026)
